Patent publication US20200317813A1, “TREATMENT AND DIAGNOSIS OF NON-PROLIFERATIVE DIABETIC RETINOPATHY” (Johann Wolfgang Goethe-Universitat Frankfurt am Main, priority 2016, published 2020)

What was measured:
[1] = test system: human endothelial cells; experiment: VE-cadherin staining and internalization in cultured endothelial cells; assay type: cell-based; conditions: 3 hours; for internalization of VE-cadherin: in the presence of t-AUCB (10 μmol/L), pre-labelled antibody and immunoprecipitation
Procedure: Cells were fixed with 4% PFA for 10 min at room temperature. After washing with PBS samples were blocked and permeabilized with 1% BSA, 5% horse serum, 0.5% Triton X-100 at room temperature for 2 hours or at 4° C. overnight before being exposed to primary antibody (4° C., overnight). After extensive washing and exposure to Alexa Fluor-coupled secondary antibody (1:200, 2 hours, room temperature) samples were mounted in fluorescent mounting medium and analyzed with a confocal microscope; Leica SP8 confocal microscope and LASX software (Wetzlar, Germany) or Carl Zeiss LSM-780 and ZEN software (Jena, Germany) as described^6′^32.
(§1) VE-cadherin internalization was determined as described^40. Endothelial cells were cultured on culture slides (BD, Heidelberg, Germany) coated with crosslinked gelatin until confluent and starved with 2% FCS overnight. Cells were then incubated with antibody against extracellular domain of human VE-cadherin (clone BV6, ALX-803-305 Enzo Life Sciences, Lörrach, Germany) at 4° C. for 1 hour in MCDB131 with 1% BSA medium. Unbound antibody was removed by rinsing cells with ice-cold MCDB131 medium. […] To block the degradation of internalized VE-cadherin chloroquine (300 μmol/L) was be added to the incubation medium. To assess internalized endogenous VE-cadherin cells were washed with ice-cold acid wash buffer (Hanks buffer, pH=2.7, containing 25 mmol/L glycine and 1% BSA) to assess total VE-cadherin cells were rinsed with ice-cold neutral washing buffer (Hanks buffer with 1% BSA, pH=7.4). Cells were fixed with 4% PFA for 15 minutes at 4° C. and then processed for immunofluorescence. […] Samples were imaged with an SP8 confocal microscope (Leica) and internalized particles were quantified using ImageJ (NIH) software.
Confluent cultures of human endothelial cells were incubated with antibodies recognizing the extracellular domains of human VE-cadherin (BV6 antibody) at 4° C. […] Samples were washed with lysis buffer and analyzed by SDS-PAGE.

[2] = test system: pericytes; experiment: N-cadherin internalization assay; assay type: cell-based, human; conditions: 3 μmol/L, 3 hours (not shown)
Procedure: as §1, with “immunofluorescence. To assess N-cadherin internalization, pericytes were incubated with an antibody against the extracellular domain of human N-cadherin (clone 8C11, 350802 BioLegend, CA. USA) at 4° C. for 1 hour in DMEM containing 1% BSA.” for “immunofluorescence.”

[3] = test system: endothelial cell-pericyte co-cultures; experiment: Endothelial cell-pericyte co-culture: cadherin expression, lipid rafts, immunoprecipitation; assay type: cell-based, human; conditions: for N-cadherin expression in cocultured cells: 19,20-EDP/19,20-DHDP 3 μmol/L, VEGF 20 ng/ml; for N-cadherin expression in cocultured cells / association (co-precipitation) of PS1 with N-cadherin and VE-cadherin / association of p120 catenin with N- or VE-cadherin: 24 hours; for lipid raft association and membrane presentation of N-cadherin: endothelial cell-pericyte cocultures; for association (co-precipitation) of PS1 with N-cadherin and VE-cadherin / association of p120 catenin with N- or VE-cadherin: immunoprecipitation from co-cultures
Procedure: Human umbilical vein endothelial cells were cultured on fibronectin coated dishes until confluent. Then pericytes were seeded on top of the endothelial cells (PC:EC=1:5) and cocultured for a further 3 days. […] Cells were then lysed with HEPES buffer: 25 mmol/L HEPES pH 7.4, 150 mmol/L NaCl, complete protease inhibitor cocktail (Roche), and 1% digitonin (Sigma). Following centrifugation at 17,000 g for 10 minutes, supernatants (1 mg of protein) were pre-cleaned with protein A/G agarose (Pierce) for 30 mins. Supernatants were then incubated with anti-VE-cadherin (1:1000, AF1002 R&D systems, Abingdon, UK) or N-cadherin (1:1000, 33-3900 life technologies, CA, USA) antibodies at 4° C. for 2 hours and then treated with protein A/G agarose for a further 2 hours. Samples were washed with lysis buffer and analyzed by SDS-PAGE.
Samples were separated by SDS-PAGE and subjected to Western blotting as described^41. Membranes were blocked in 3% BSA in PBS, incubated with primary and horseradish peroxidase-conjugated secondary antibodies in blocking solution, and detection was performed with a Lumi-Light plus western blotting substrate (Roche).
Lipid rafts were isolated as described with modifications^42. Briefly, cells were harvested by scraping and homogenized at 4° C. in sodium carbonate (0.5 mol/L, pH11) using a glass homogenizer, followed by sonication. Then, equal amounts of protein were adjusted to a final sucrose concentration of 45% (final volume, 4 mL) and transferred to 12 mL ultracentrifuge tubes. A discontinuous sucrose gradient was then formed by sequentially overlaying 4 mL of 35% and 4 ml, of 5% sucrose. Samples were subjected to ultracentrifugation (35,000 rpm, 4° C. for 20 hours) using a Beckman SW 41 rotor (Krefeld, Germany). After centrifugation, twelve 1 mL fractions were collected using a capillary tube connected to a peristaltic pump, and equal volumes of each faction were analyzed by SDS-PAGE using antibodies against flotillin 1 (1:2000, 610820 BD Biosciences, Heidelberg, Germany), VE-cadherin (1:1000, sc-28644 Santa Cruz, Darmstadt, Germany) and N-cadherin (1:1000, 33-3900 lifetechnologies, CA, USA).

[4] = test system: retinas from 7 month old wild-type mice; experiment: Retinal explants, ex vivo retina whole mount model; assay type: cell-based, mouse; conditions: ex vivo organ culture, 4 day period, 5 μmol/L
Procedure: Eyes from 7 months old animals were enucleated and immersed in ice-cold HBSS containing penicillin (100 U/mL) and streptomycin (100 μg/mL). Retinas were carefully dissected under stereomicroscope and divided into four quadrants with four deep radial incisions. The explants were transferred onto tissue culture inserts (0.4 μm pore, Millipore; Cork, Ireland) with the retinal ganglion cell side facing up. The inserts were placed into the wells of a 6-well plate. A serum free retinal explant media (Neurobasal A, Invitrogen) supplemented with 2% B27 (Invitrogen), 1% N2 (Invitrogen), L-glutamine (0.8 mmol/L), penicillin (100 U/mL), and streptomycin (100 μg/mL) were added to the bottle of the wells and 3 μL of media was dropped on top of the retina to keep it moist. […] After 4 days, retinas were fixed and processed as described above.

[5] = test system: Ins2Akita mice; conditions: mouse, in vivo
[6] = test system: retinas from wild-type and Ins2Akita mice; experiment: Retinal growth factor and Notch gene expression in mice treated with sEH inhibitor; assay type: in vivo, mouse
Procedure: Total RNA from retinas was extracted using an RNeasy kit (QIAGEN, Hilden, Germany), and equal amounts (1 μg) of total RNA was reverse transcribed (Superscript III; Invitrogen). Gene expression levels were detected using SYBR Green (Absolute QPCR SYBR Green Mix; Thermo Fisher Scientifc). The relative expression levels of the different genes studied was calculated using the 2^−ΔΔCt method with the 18S RNA as a reference.

[7] = test system: murine brain microvascular endothelial cells; experiment: Transendothelial electrical resistance (TEER); assay type: cell-based, mouse; conditions: 19,20-EDP/19,20-DHDP 3 μmol/L, VEGF 20 ng/ml, 24 hours
Procedure: Impedance measurements were performed using isolated murine brain microvascular endothelial cells with a cellZscope device (nano-Analytics) as described^38. […] Measurements were performed four times in quadruplicate with endothelial cells from four different cell preparations.

[8] = target: T1, sEH (Homo sapiens, UniProt P34913); conditions: cited from earlier work
T1 sequence (P34913 1-555): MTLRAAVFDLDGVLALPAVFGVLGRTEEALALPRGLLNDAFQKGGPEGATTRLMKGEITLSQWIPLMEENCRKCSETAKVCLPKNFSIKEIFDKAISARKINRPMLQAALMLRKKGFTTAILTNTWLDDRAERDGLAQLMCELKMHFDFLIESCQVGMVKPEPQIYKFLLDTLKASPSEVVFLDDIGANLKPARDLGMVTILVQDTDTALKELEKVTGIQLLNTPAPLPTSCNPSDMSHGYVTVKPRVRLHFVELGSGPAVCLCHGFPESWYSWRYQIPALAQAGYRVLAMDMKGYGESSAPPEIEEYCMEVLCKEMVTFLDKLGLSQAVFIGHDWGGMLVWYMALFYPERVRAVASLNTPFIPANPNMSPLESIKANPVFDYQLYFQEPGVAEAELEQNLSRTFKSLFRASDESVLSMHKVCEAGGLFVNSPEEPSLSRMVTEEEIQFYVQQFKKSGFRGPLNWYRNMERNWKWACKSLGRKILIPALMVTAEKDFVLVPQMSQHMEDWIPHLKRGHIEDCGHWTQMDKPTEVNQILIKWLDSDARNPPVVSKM

[9] = target: γ-secretase (Homo sapiens, UniProt P49768); conditions: by redistribution of PS1 out of lipid rafts, retina; cited from earlier work
[10] = test system: pericytes; experiment: In vitro pericyte migration on endothelial cell monolayer; assay type: cell-based, human; conditions: 3 μmol/L
Procedure: Human umbilical vein endothelial cells were isolated and cultured as described^37, seeded on μ-slides (ibidi, Martinsried, Germany) and grown to confluence. Pericytes were labeled with cell tracker green (Invitrogen) and added to the endothelial cell monolayer. Cells were treated with either solvent (0.03% DMSO), 19,20-EDP (3 μmol/L), 19,20-DHDP (3 μmol/L). Cells were incubated in an IncuCyte imaging system (Essen Bioscience) that took photographs automatically every 15 minutes for 48 hours. Pericyte movement on top of the endothelial cell monolayer were tracked manually and analyzed with Image J (NIH, Bethesda, Md., USA). In some experiments pericytes were treated with small interfering RNA directed against N-cadherin (sc-29403, Santa Cruz). Transfection was performed with lipofectamine 2000 (Invitrogen) following the manufacturer's instructions and a scrambled control siRNA was used as control.

Row | Compound | internalization of VE-cadherin [1] | N-cadherin internalization [2] | N-cadherin expression in cocultured cells [3] | lipid raft association and membrane presentation of N-cadherin [3] | association (co-precipitation) of PS1 with N-cadherin and VE-cadherin [3] | capillary pericyte loss and pericyte migration [4] | association of p120 catenin with N- or VE-cadherin [3] | transendothelial electrical resistance [7] | further results
1 | CCC1OC1CC=CCC=CCC=CCC=CCC=CCCC(=O)O (stereo not shown) [19,20-EDP, 19,20 epoxydocosapentaenoic acid] | not | not | without effect | not | without effect | largely ineffective |  |  | 
2 | O=C(NC12CC3CC(CC(C3)C1)C2)N[C@H]1CC[C@H](Oc2ccc(C(=O)O)cc2)CC1 (relative stereo) [t-AUCB, trans-4-[4-(3-adamantan-1-ylureido)cyclohexyloxy]-benzoic acid] |  |  |  |  |  |  |  |  | N-cadherin expression in retinas [5]: largely maintained; co-localization of VE-cadherin and N-cadherin with PS1 in retinas [5]: maintained; loss of desmin positive cells in retinas [5]: prevented; Hey1 and Jagged 1 expression [6]: tend to increase; PDFG receptor β levels in retinas [6]: failed to significantly alter; PDGFB expression in retinas [6]: increased
3 | VEGF |  |  | without effect |  | attenuated |  | decreased recovery | alterations induced by 19,20-DHDP were however less pronounced than those elicited by vascular endothelial cell growth factor | 
4 | CCCCCCCCCCCCNC(=O)NC12CC3CC(CC(C3)C1)C2 [ADU, N-Adamantyl-N′-dodecyl urea] |  |  |  |  |  |  |  |  | activity on sEH [8]: particularly high activity
5 | 19,20-dihydroxydocosapentaenoic acid [19,20-DHDP] | detected | induce | decreased | disrupt | attenuated | induced | did not influence | decreased | VE-cadherin staining of confluent endothelial cells ([1]; 3 μmol/L): discontinuous; γ-secretase activity [9]: inhibit; pericyte motility [10]: increase
